Experimental data taken from PubChem BioAssay AID256 (DTP/NCI, 2004).
“And” between values parts separate entries of the source, which are not always exact repeats. Identical values can stand only once. Toxic doses and inconclusive results are not listed. The calls were made as follows: active = survival T/C of 150% or more; inactive = T/C below 125% in these data.

System: CD2F1 mice, L1210 leukemia ip, survival T/C
Test: NCI In Vivo Anticancer Drug Screen. Data for tumor model L1210 Leukemia (intraperitoneal) in CD2F1 (CDF1) mice
Conditions: higher = longer survival
Procedure, shortened: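 In this screen, transplantable tumors were grown in mice given either the compound or its vehicle. Results were expressed as the treated measurement relative to the control measurement.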

[1] = endpoint: mean survival time, dose: 100.0 mg/kg/injection, schedule: Q01DX001 (ip), vehicle: saline
[2] = endpoint: mean survival time, dose: 200.0 mg/kg/injection, schedule: Q01DX001 (ip), vehicle: saline
[3] = endpoint: mean survival time, dose: 400.0 mg/kg/injection, schedule: Q01DX001 (ip), vehicle: saline
[4] = endpoint: mean survival time, dose: 12.5 mg/kg/injection, schedule: Q04DX003 (ip), vehicle: saline with Tween-80
[5] = endpoint: mean survival time, dose: 25.0 mg/kg/injection, schedule: Q04DX003 (ip), vehicle: saline with Tween-80
[6] = endpoint: mean survival time, dose: 75.0 mg/kg/injection, schedule: Q01DX001 (ip), vehicle: saline

Measured: T/C

COC1C(O)C(C)OC(OC2CC(O)C3(C)C(CCC4C3CCC3(C)C(C5=CC(=O)OC5)CCC43O)C2)C1O (configuration not stated) (tested in a mixture with another compound)
inactive: endpoint: mean survival time, dose: 50.0 mg/kg/injection, schedule: Q01DX001 (ip), vehicle: saline sonified 87 % of control

Nc1n[n+](-c2ccccc2)no1
inactive: endpoint: mean survival time, dose: 1.56 mg/kg/injection, schedule: Q01DX009 (ip), vehicle: water 106 % of control | endpoint: mean survival time, dose: 3.12 mg/kg/injection, schedule: Q01DX009 (ip), vehicle: water 97 % of control and 100 % of control | endpoint: mean survival time, dose: 6.25 mg/kg/injection, schedule: Q01DX009 (ip), vehicle: water 102 % of control and 105 % of control | endpoint: mean survival time, dose: 12.5 mg/kg/injection, schedule: Q01DX009 (ip), vehicle: water 101 % of control and 108 % of control | endpoint: mean survival time, dose: 25.0 mg/kg/injection, schedule: Q01DX009 (ip), vehicle: water 121 % of control and 111 % of control | endpoint: mean survival time, dose: 50.0 mg/kg/injection, schedule: Q01DX009 (ip), vehicle: water 94 % of control

CC1OC(OC(=O)c2ccc([N+](=O)[O-])cc2)CC(NC(=O)C(F)(F)F)C1OC(=O)c1ccc([N+](=O)[O-])cc1 (configuration not stated)
inactive: endpoint: mean survival time, dose: 25.0 mg/kg/injection, schedule: Q01DX005 (ip), vehicle: Klucel (hydroxypropylcellulose) (HPC) 94 % of control | endpoint: mean survival time, dose: 50.0 mg/kg/injection, schedule: Q01DX005 (ip), vehicle: Klucel (hydroxypropylcellulose) (HPC) 89 % of control

CCOC(=O)C1CC2(CC(C(N)=O)C2)C1 (configuration not stated)
inactive: [1] 103 % of control | [2] 100 % of control | [3] 93 % of control

C/C=C/C=C/C(=O)c1cc(C#N)c(OC)cc1O
inactive: endpoint: mean survival time, dose: 100.0 mg/kg/injection, schedule: Q01DX001 (ip), vehicle: saline with Tween-80 88 % of control | endpoint: mean survival time, dose: 200.0 mg/kg/injection, schedule: Q01DX001 (ip), vehicle: saline with Tween-80 88 % of control | endpoint: mean survival time, dose: 400.0 mg/kg/injection, schedule: Q01DX001 (ip), vehicle: saline with Tween-80 89 % of control

COc1cc(C2c3cc4c(c(OC5OC6CO[C@@H](c7cccs7)OC6C(O)C5O)c3C[C@@H]3COC(=O)[C@@H]23)OCO4)cc(OC)c1O (some centres not stated)
inactive: endpoint: median survival time, dose: 0.8 mg/kg/injection, schedule: Q01DX005 (ip), vehicle: saline with Tween-80 104 % of control | endpoint: median survival time, dose: 1.6 mg/kg/injection, schedule: Q01DX005 (ip), vehicle: saline with Tween-80 100 % of control | endpoint: median survival time, dose: 3.2 mg/kg/injection, schedule: Q01DX005 (ip), vehicle: saline with Tween-80 107 % of control | endpoint: median survival time, dose: 6.4 mg/kg/injection, schedule: Q01DX005 (ip), vehicle: saline with Tween-80 107 % of control

CC1NC(C)SC(C)S1 (configuration not stated)
inactive: endpoint: mean survival time, dose: 100.0 mg/kg/injection, schedule: Q04DX003 (ip), vehicle: saline with Tween-80 101 % of control | endpoint: mean survival time, dose: 200.0 mg/kg/injection, schedule: Q04DX003 (ip), vehicle: saline with Tween-80 98 % of control

CSc1nc(N)c2cnn(C3OC(CO)C(O)C3O)c2n1 (configuration not stated)
inactive: endpoint: median survival time, dose: 8.13 mg/kg/injection, schedule: Q01DX005 (ip), vehicle: saline with Tween-80 100 % of control | endpoint: median survival time, dose: 9.0 mg/kg/injection, schedule: Q01DX005 (ip), vehicle: saline 107 % of control | endpoint: median survival time, dose: 12.5 mg/kg/injection, schedule: Q01DX005 (ip), vehicle: saline with Tween-80 102 % of control | endpoint: median survival time, dose: 16.25 mg/kg/injection, schedule: Q01DX005 (ip), vehicle: saline with Tween-80 97 % of control | endpoint: median survival time, dose: 18.0 mg/kg/injection, schedule: Q01DX005 (ip), vehicle: saline 100 % of control | endpoint: median survival time, dose: 25.0 mg/kg/injection, schedule: Q01DX005 (ip), vehicle: saline with Tween-80 100 % of control | endpoint: median survival time, dose: 32.5 mg/kg/injection, schedule: Q01DX005 (ip), vehicle: saline with Tween-80 101 % of control | endpoint: median survival time, dose: 36.0 mg/kg/injection, schedule: Q01DX005 (ip), vehicle: saline 103 % of control | endpoint: median survival time, dose: 50.0 mg/kg/injection, schedule: Q01DX005 (ip), vehicle: saline with Tween-80 94 % of control | endpoint: median survival time, dose: 65.0 mg/kg/injection, schedule: Q01DX005 (ip), vehicle: saline with Tween-80 100 % of control | endpoint: median survival time, dose: 72.0 mg/kg/injection, schedule: Q01DX005 (ip), vehicle: saline 97 % of control | endpoint: median survival time, dose: 100.0 mg/kg/injection, schedule: Q01DX005 (ip), vehicle: saline with Tween-80 93 % of control | endpoint: median survival time, dose: 130.0 mg/kg/injection, schedule: Q01DX005 (ip), vehicle: saline with Tween-80 101 % of control | endpoint: median survival time, dose: 200.0 mg/kg/injection, schedule: Q01DX005 (ip), vehicle: saline with Tween-80 94 % of control

CCOc1ccc(Nc2nc(C(Cl)(Cl)Cl)cc(C(Cl)(Cl)Cl)n2)cc1CN(CC)CC
inactive: endpoint: mean survival time, dose: 6.25 mg/kg/injection, schedule: Q01DX009 (ip), vehicle: saline with Tween-80 101 % of control | endpoint: mean survival time, dose: 6.25 mg/kg/injection, schedule: Q04DX003 (ip), vehicle: saline with Tween-80 97 % of control | endpoint: mean survival time, dose: 12.5 mg/kg/injection, schedule: Q01DX009 (ip), vehicle: saline with Tween-80 100 % of control | [4] 101 % of control | endpoint: mean survival time, dose: 25.0 mg/kg/injection, schedule: Q01DX009 (ip), vehicle: saline with Tween-80 102 % of control | [5] 95 % of control

CC(C)(C)S(=O)O
inactive: [1] 101 % of control | [2] 94 % of control | [3] 100 % of control

CCCC[N+](CCCC)(CCCC)Cc1ccccc1
inactive: endpoint: mean survival time, dose: 1.5 mg/kg/injection, schedule: Q04DX003 (ip), vehicle: saline 100 % of control | endpoint: mean survival time, dose: 3.0 mg/kg/injection, schedule: Q04DX003 (ip), vehicle: saline 97 % of control | endpoint: mean survival time, dose: 6.0 mg/kg/injection, schedule: Q04DX003 (ip), vehicle: saline 94 % of control

O=c1nc(NCc2cccs2)ccn1C1OC(CO)C(O)C1O (configuration not stated)
inactive: endpoint: median survival time, dose: 12.5 mg/kg/injection, schedule: Q01DX005 (ip), vehicle: water 104 % of control | endpoint: median survival time, dose: 25.0 mg/kg/injection, schedule: Q01DX005 (ip), vehicle: water 103 % of control | endpoint: median survival time, dose: 50.0 mg/kg/injection, schedule: Q01DX005 (ip), vehicle: water 103 % of control | endpoint: median survival time, dose: 100.0 mg/kg/injection, schedule: Q01DX005 (ip), vehicle: water 102 % of control | endpoint: median survival time, dose: 200.0 mg/kg/injection, schedule: Q01DX005 (ip), vehicle: water 102 % of control

CO/N=C(/c1ccccc1)c1cccc[n+]1C
inactive: endpoint: mean survival time, dose: 9.4 mg/kg/injection, schedule: Q01DX009 (ip), vehicle: saline 107 % of control | endpoint: mean survival time, dose: 18.8 mg/kg/injection, schedule: Q01DX009 (ip), vehicle: saline 97 % of control | endpoint: mean survival time, dose: 37.5 mg/kg/injection, schedule: Q01DX009 (ip), vehicle: saline 98 % of control | [6] 97 % of control

CC(CNC1CCCCC1)OC(=O)c1ccc(N(C)C)cc1 (configuration not stated)
inactive: [6] 99 % of control | endpoint: mean survival time, dose: 150.0 mg/kg/injection, schedule: Q01DX001 (ip), vehicle: saline 100 % of control

C[CH2][Sn]([c]1ccccc1)([c]1ccccc1)[c]1ccccc1
inactive: [4] 97 % of control | [5] 100 % of control | endpoint: mean survival time, dose: 50.0 mg/kg/injection, schedule: Q04DX003 (ip), vehicle: saline with Tween-80 94 % of control

O=C(O)C1SCCCS1
inactive: endpoint: mean survival time, dose: 12.5 mg/kg/injection, schedule: Q04DX002 (ip), vehicle: saline 105 % of control | endpoint: mean survival time, dose: 25.0 mg/kg/injection, schedule: Q04DX002 (ip), vehicle: saline 94 % of control | endpoint: mean survival time, dose: 50.0 mg/kg/injection, schedule: Q04DX002 (ip), vehicle: saline 94 % of control

CCCOS(=O)(=O)O
inactive: [1] 106 % of control | [2] 102 % of control | [3] 106 % of control

CCOC(=O)C1C=CCCC1 (configuration not stated)
inactive: endpoint: mean survival time, dose: 100.0 mg/kg/injection, schedule: Q01DX009 (ip), vehicle: saline with Tween-80 97 % of control | endpoint: mean survival time, dose: 200.0 mg/kg/injection, schedule: Q01DX009 (ip), vehicle: saline with Tween-80 103 % of control | endpoint: mean survival time, dose: 400.0 mg/kg/injection, schedule: Q01DX009 (ip), vehicle: saline with Tween-80 95 % of control

CC1=NCCN1CCN
inactive: endpoint: mean survival time, dose: 100.0 mg/kg/injection, schedule: Q04DX002 (ip), vehicle: saline 91 % of control | endpoint: mean survival time, dose: 200.0 mg/kg/injection, schedule: Q04DX002 (ip), vehicle: saline 109 % of control | endpoint: mean survival time, dose: 400.0 mg/kg/injection, schedule: Q04DX002 (ip), vehicle: saline 113 % of control

CC[N+](CC)(CCOc1ccc(C(C)(C)CC(C)(C)C)cc1)Cc1ccccc1
inactive: endpoint: mean survival time, dose: 5.0 mg/kg/injection, schedule: Q04DX003 (ip), vehicle: saline 102 % of control

S=c1cn[nH]c2ccc(Br)cc12
inactive: endpoint: mean survival time, dose: 100.0 mg/kg/injection, schedule: Q01DX001 (ip), vehicle: other 96 % of control | endpoint: mean survival time, dose: 200.0 mg/kg/injection, schedule: Q01DX001 (ip), vehicle: other 103 % of control | endpoint: mean survival time, dose: 400.0 mg/kg/injection, schedule: Q01DX001 (ip), vehicle: other 92 % of control
